The IC50 is the concentration that inhibits the measured activity by half.

This is an account of results in US11878973B2, “Bicyclic compounds and their uses” (NOVARTIS AG, priority 2021, dated 2024).

One experiment has as its system SW48 xenografts. Particulars: 240 mg/kg qd oral.
The next experiment concerns DLD1-WRN-KO cells. Kind of experiment: Proliferation assay DLD1-WRN-KO (CellTiterGlo, 96 hours; off-target effects). The following applies: Homo sapiens, read-out: Proliferation Assay DLD1-WRN-KO (GI50). (In ATP-based viability assays light output follows the ATP content of the culture.)
A further experiment has as its system SW48 cells. Kind of experiment: Proliferation assay SW48 (CellTiterGlo, 96 hours). Particulars: Homo sapiens, SW48, read-out: Proliferation Assay SW48 (GI50).
The next experiment addresses WRN helicase (Homo sapiens (Human), UniProt Q14191). As to the kind of experiment: In vitro enzymatic activity assay on WRN helicase (DNA dependent ATPase assay, ADP-Glo). Particulars: geometric means of at least 2 determinations; read-out: WRN ATPase Activity (IC50). The class given is biochemical. The method, boiled down:
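The WRN helicase core (aa N517-P1238), 10 nM, hydrolysed 300 µM ATP in the presence of 0.2 nM FLAP26 DNA (Tris pH 7.5, 2 mM MgCl2, 50 mM NaCl) for 30 min at room temperature. ADP formed was quantified by ADP-Glo luminescence.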
In general terms: ADP-Glo first removes unused ATP, then detects ADP through luciferase.

WRN helicase, sequence (Q14191 517-1238): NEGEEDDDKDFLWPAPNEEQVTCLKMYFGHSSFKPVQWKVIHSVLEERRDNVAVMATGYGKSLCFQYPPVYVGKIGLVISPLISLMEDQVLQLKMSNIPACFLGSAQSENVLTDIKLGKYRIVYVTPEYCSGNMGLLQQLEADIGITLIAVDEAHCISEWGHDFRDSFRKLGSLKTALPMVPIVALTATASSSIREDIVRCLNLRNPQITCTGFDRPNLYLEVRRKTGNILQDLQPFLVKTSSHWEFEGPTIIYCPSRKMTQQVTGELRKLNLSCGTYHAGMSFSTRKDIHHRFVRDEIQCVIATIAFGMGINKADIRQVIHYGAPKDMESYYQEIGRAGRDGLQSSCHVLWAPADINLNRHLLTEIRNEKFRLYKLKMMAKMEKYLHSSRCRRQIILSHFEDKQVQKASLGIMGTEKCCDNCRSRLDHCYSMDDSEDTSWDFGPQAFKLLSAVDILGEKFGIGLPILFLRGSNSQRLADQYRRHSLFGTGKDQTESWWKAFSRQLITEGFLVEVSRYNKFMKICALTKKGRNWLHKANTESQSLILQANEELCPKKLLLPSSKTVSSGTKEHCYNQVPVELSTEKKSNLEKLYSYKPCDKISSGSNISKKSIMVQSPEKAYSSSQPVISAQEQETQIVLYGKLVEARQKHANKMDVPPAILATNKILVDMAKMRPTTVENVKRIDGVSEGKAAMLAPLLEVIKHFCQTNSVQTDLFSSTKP

On to `CCc1c(N2CCN(C(=O)c3ncccc3O)CC2)c(=O)n2nc(C3=CCOCC3)nc2n1CC(=O)Nc1ccc(C(F)(F)F)cc1C` [Example 58, 2-(2-(3,6-dihydro-2H-pyran-4-yl)-5-ethyl-6-(4-(3-hydroxypicolinoyl)piperazin-1-yl)-7-oxo-[1,2,4]triazolo[1,5-a]pyrimidin-4(7H)-yl)-N-(2-methyl-4-(trifluoromethyl)phenyl)acetamide], for which the antitumor response result in the experiment on SW48 xenografts (SW48 xenografts in nude mice) is listed as “induced an antitumor response”. Besides, the T/C % value in the experiment on SW48 xenografts (day 18, SW48 xenografts in nude mice, p<0.05 vs vehicle) was −9%. Moreover, the “tumor regression (mean tumor volume)” value in the experiment with SW48 xenografts (day 18, in the 4/7 surviving animals) is −26%.
Consider `CCc1c(N2CCN(C(=O)c3ncnc(C)c3O)CC2)c(=O)n2nc(C3=CCN(C(=O)OC(C)(C)C)CC3)nc2n1CC(=O)Nc1ccc(C(F)(F)F)cc1C` [Example 130, tert-butyl 4-(5-ethyl-6-(4-(5-hydroxy-6-methylpyrimidine-4-carbonyl)piperazin-1-yl)-4-(2-((2-methyl-4-(trifluoromethyl)phenyl)amino)-2-oxoethyl)-7-oxo-4,7-dihydro-[1,2,4]triazolo[1,5-a]pyrimidin-2-yl)-3,6-dihydropyridine-1 (2H)-carboxylate], for which the GI50 in the experiment on DLD1-WRN-KO cells is more than 10000 nM; in the experiment on SW48 cells, 50 nM. Also, the concentration for half-maximal inhibition (IC50) on WRN helicase was determined as 100 nM.
Regarding `O=C(Cn1c(C2CC2)c(N2CCN(C(=O)c3ncccc3O)CC2)c(=O)n2nc(C3=CCOCC3)nc12)Nc1ccc(C(F)(F)F)cc1` [Example 134, 2-(5-cyclopropyl-2-(3,6-dihydro-2H-pyran-4-yl)-6-(4-(3-hydroxypicolinoyl)piperazin-1-yl)-7-oxo-[1,2,4]triazolo[1,5-a]pyrimidin-4(7H)-yl)-N-(4-(trifluoromethyl)phenyl)acetamide], the GI50 in the experiment with DLD1-WRN-KO cells was more than 10000 nM; in the experiment with SW48 cells it was 210 nM. In addition, the IC50 on WRN helicase stood at 60 nM.
For `Cc1cc(C(F)(F)F)ccc1NC(=O)Cn1c(CCO)c(N2CCN(C(=O)c3ncccc3O)CC2)c(=O)n2nc(C3=CCOCC3)nc12` [Example 135, 2-(2-(3,6-dihydro-2H-pyran-4-yl)-5-(2-hydroxyethyl)-6-(4-(3-hydroxypicolinoyl)piperazin-1-yl)-7-oxo-[1,2,4]triazolo[1,5-a]pyrimidin-4(7H)-yl)-N-(2-methyl-4-(trifluoromethyl)phenyl)acetamide] the same measures were more than 10000 nM, 280 nM and 130 nM.
For `Cc1c(C2CCN(C(=O)c3ncccc3O)CC2)c(=O)n2nc(C3=CCOCC3)nc2n1CC(=O)Nc1ccc(C(F)(F)F)cc1` [Example 136, 2-(2-(3,6-dihydro-2H-pyran-4-yl)-6-(1-(3-hydroxypicolinoyl)piperidin-4-yl)-5-methyl-7-oxo-[1,2,4]triazolo[1,5-a]pyrimidin-4(7H)-yl)-N-(4-(trifluoromethyl)phenyl)acetamide] the same measures were more than 10000 nM, 650 nM and 80 nM.
For `CCc1c(N2CCN(S(=O)(=O)c3ncccc3O)CC2)c(=O)n2nc(C3=CCOCC3)nc2n1CC(=O)Nc1ccc(C(F)(F)F)cc1Cl` [Example 137, N-(2-chloro-4-(trifluoromethyl)phenyl)-2-(2-(3,6-dihydro-2H-pyran-4-yl)-5-ethyl-6-(4-((3-hydroxypyridin-2-yl)sulfonyl)piperazin-1-yl)-7-oxo-[1,2,4]triazolo[1,5-a]pyrimidin-4(7H)-yl)acetamide] the same measures were 6100 nM, 240 nM and 50 nM.
